Patent US20100168421A1, “A NEW PEPTIDE DEFORMYLASE INHIBITOR COMPOUND AND MANUFACTURING PROCESS THEREOF” (priority 2007, published 2010)
Converted amounts (≈) assume the structure as drawn. Read-outs that look alike come from different tables or passages of the source.

Legend:
[1] = target: PDF enzyme (Escherichia coli, UniProt P0A6K3); experiment: PDF/FDH coupled enzyme assay, E. coli; type: biochemical
Method: Activities of PDF enzyme for E. coli and S. aureus were determined using PDF/FDH coupled assay. In this coupled assay, the formate released by PDF from its substrate formyl-Methionine-Alanine-Serine (fMAS) is oxidized by coupling enzyme formate dehydrogenase (FDH), reducing one molecule of NAD^+ to NADH, which is measured absorption at 340 nm.

[2] = target: T1, PDF enzyme (Streptococcus pneumoniae serotype 4, UniProt Q9F2F0); experiment: PDF/FDH coupled enzyme assay, Streptococcus Pneumoniae; type: biochemical; settings: substrate fMAS, absorption at 340 nm
T1 sequence (Q9F2F0 1-203): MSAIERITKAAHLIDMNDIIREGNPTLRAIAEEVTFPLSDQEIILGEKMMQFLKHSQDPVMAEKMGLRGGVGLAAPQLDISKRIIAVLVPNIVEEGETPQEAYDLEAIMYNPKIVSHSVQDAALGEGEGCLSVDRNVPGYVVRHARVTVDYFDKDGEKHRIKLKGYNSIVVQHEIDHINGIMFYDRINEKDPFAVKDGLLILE

[3] = target: PDF enzyme (Streptococcus pyogenes serotype M1, UniProt P68771); experiment: PDF/FDH coupled enzyme assay, Streptococcus pyogenes; type: biochemical
[4] = system: Streptococcus Pneumoniae Pen S; experiment: MIC microdilution, S. Pneumoniae Pen S; type: cell-based; settings: read-out: MIC Streptococcus Pneumoniae Pen S
Method: (§1) Minimum inhibitory concentrations (MICs) were determined using the microdilution method in 96-well format plates. Each of the compounds of Examples was dissolved in dimethyl sulfoxide to a concentration of 2 mg/mL and stored at 4° C. until used. They were diluted in Mueller-Hinton Broth (MHB) and used for MIC determination. The range of concentrations tested was […] final concentration using a two-fold dilution system. Plates were incubated at 37° C. and MIC were recorded after 24 hours of incubation for bacteria.
(§2) Linezolid and vancomycin were used as standard antibiotics, respectively.

[5] = system: Vancomycin-resistant Enterococcus faecium; experiment: MIC microdilution, VR E. faecium; type: cell-based; settings: read-out: MIC Vancomycin-resistant Enterococcus faecium
Method: as §1, §2

[6] = system: Streptococcus Pneumoniae Pen NS; experiment: MIC microdilution, S. Pneumoniae Pen NS; type: cell-based; settings: read-out: MIC Streptococcus Pneumoniae Pen NS
Method: as §1, §2

[7] = system: Vancomycin-resistant Enterococcus faecalis; experiment: MIC microdilution, VR E. faecalis; type: cell-based; settings: read-out: MIC Vancomycin-resistant Enterococcus faecalis
Method: as §1, §2

[8] = system: Streptococcus pyogenes; experiment: MIC microdilution, S. pyogenes; type: cell-based; settings: read-out: MIC Streptococcus pyogenes
Method: as §1, §2

[9] = microdilution, Mueller-Hinton Broth, 37° C., 24 hours

PDF enzyme (Escherichia coli, UniProt P0A6K3), sequence (P0A6K3 whole entry): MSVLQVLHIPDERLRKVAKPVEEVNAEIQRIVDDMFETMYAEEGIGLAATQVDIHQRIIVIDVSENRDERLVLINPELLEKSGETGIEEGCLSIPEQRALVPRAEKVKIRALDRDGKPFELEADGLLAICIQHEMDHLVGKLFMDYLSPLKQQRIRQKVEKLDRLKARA
PDF enzyme (Streptococcus pyogenes serotype M1, UniProt P68771), sequence (P68771 whole entry): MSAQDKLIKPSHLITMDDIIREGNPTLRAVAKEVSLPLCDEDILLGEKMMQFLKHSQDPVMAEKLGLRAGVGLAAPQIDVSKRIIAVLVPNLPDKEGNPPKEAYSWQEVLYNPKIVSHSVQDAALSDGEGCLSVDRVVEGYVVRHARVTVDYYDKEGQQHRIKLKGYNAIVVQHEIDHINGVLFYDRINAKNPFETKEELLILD

| SMILES | IC50 [1] [nM] | IC50 [2] [nM] | IC50 [3] [nM] | MIC [4, 9] [µg/mL] | MIC [5, 9] [µg/mL] | MIC [6, 9] [µg/mL] | MIC [7, 9] [µg/mL] | MIC [8, 9] [µg/mL] | MIC ([4]; 24 h) [µg/mL] | MIC ([5]; 24 h) [µg/mL] | MIC ([6]; 24 h) [µg/mL] | MIC ([7]; 24 h) [µg/mL] | MIC ([8]; 24 h) [µg/mL] |
| --- | --- | --- | --- | --- | --- | --- | --- | --- | --- | --- | --- | --- | --- |
| Cc1ccc(CNC2CCN(C(=O)[C@@H](NC(=O)[C@@H](CC(=O)NO)CC3CCCC3)C(C)(C)C)CC2)cc1 [Example 1, (R)-2-Cyclopentylmethyl-N^1-{(S)-2,2-dimethyl-1-[4-(4-methyl-benzylamino)-piperidine-1-carbonyl]-propyl}-N^4-hydroxy-succinamide] | 150 | 65 | 70 | – | – | – | – | – | – | – | – | – | – |
| CC(C)(C)[C@H](NC(=O)[C@H](CC1CCCC1)CN(O)C=O)C(=O)N1CCC(NCc2ccc(C#N)cc2)CC1 [Example 3, (R)-N-{(S)-1-[4-(4-Cyano-benzylamino)-piperidine-1-carbonyl]-2,2-dimethyl-propyl}-2-cyclopentylmethyl-3-(formyl-hydroxy-amino)-propionamide] | – | – | – | 0.1 (≈ 0.19 µM) | 0.4 (≈ 0.761 µM) | 0.4 (≈ 0.761 µM) | 0.8 (≈ 1.52 µM) | 0.2 (≈ 0.38 µM) | – | – | – | – | – |
| CC(C)(C)[C@H](NC(=O)[C@H](CC1CCCC1)CN(O)C=O)C(=O)N1CCC(NCc2ccc(F)cc2)CC1 [Example 4, (R)-2-Cyclopentylmethyl-N-{(S)-1-[4-(4-fluoro-benzylamino)-piperidine-1-carbonyl]-2,2-dimethyl-propyl}-3-(formyl-hydroxy-amino)-propionamide] | – | – | – | 0.2 (≈ 0.386 µM) | 0.4 (≈ 0.771 µM) | 0.4 (≈ 0.771 µM) | 3.1 (≈ 5.98 µM) | 0.4 (≈ 0.771 µM) | – | – | – | – | – |
| COC(=O)c1ccc(CNC2CCN(C(=O)[C@@H](NC(=O)[C@H](CC3CCCC3)CN(O)C=O)C(C)(C)C)CC2)cc1 [Example 7, 4-[(1-{(S)-2-[(R)-2-Cyclopentylmethyl-3-(formyl-hydroxy-amino)-propionylamino]-3,3-dimethyl-butyryl}-piperidin-4-ylamino)-methyl]-benzoic acid methyl ester] | – | – | – | 0.4 (≈ 0.716 µM) | 3.1 (≈ 5.55 µM) | 1.6 (≈ 2.86 µM) | 6.3 (≈ 11.3 µM) | 0.8 (≈ 1.43 µM) | – | – | – | – | – |
| CC(C)(C)[C@H](NC(=O)[C@H](CC1CCCC1)CN(O)C=O)C(=O)N1CCC(NCc2ccccn2)CC1 [Example 9, (R)-2-Cyclopentylmethyl-N-((S)-2,2-dimethyl-1-{4-[(pyridine-2-ylmethyl)-amino]-piperidine-1-carbonyl}-propyl)-3-(formyl-hydroxy-amino)-propionamide] | – | – | – | 1.6 (≈ 3.19 µM) | 12.5 (≈ 24.9 µM) | 1.6 (≈ 3.19 µM) | 12.5 (≈ 24.9 µM) | 0.8 (≈ 1.59 µM) | – | – | – | – | – |
| CC(C)(C)[C@H](NC(=O)[C@H](CC1CCCC1)CN(O)C=O)C(=O)N1CCC(NCc2ccc(F)cc2F)CC1 [Example 10, (R)-2-Cyclopentylmethyl-N-{(S)-1-[4-(2,4-difluoro-benzylamino)-piperidine-1-carbonyl]-2,2-dimethyl-propyl}-3-(formyl-hydroxy-amino)-propionamide] | 122 | 55 | 83 | – | – | – | – | – | – | – | – | – | – |
| COc1ccc(CNC2CCN(C(=O)[C@@H](NC(=O)[C@H](CC3CCCC3)CN(O)C=O)C(C)(C)C)CC2)c(OC)c1 [Example 12, (R)-2-Cyclopentylmethyl-N-{(S)-1-[4-(2,4-dimethoxy-benzylamino)-piperidine-1-carbonyl]-2,2-dimethyl-propyl}-3-(formyl-hydroxy-amino)-propionamide] | – | – | – | 0.2 (≈ 0.357 µM) | 3.1 (≈ 5.53 µM) | 0.8 (≈ 1.43 µM) | 6.3 (≈ 11.2 µM) | 0.2 (≈ 0.357 µM) | – | – | – | – | – |
| CC(C)(C)[C@H](NC(=O)[C@H](CC1CCCC1)CN(O)C=O)C(=O)N1CCC(NCc2cc(F)c(F)cc2F)CC1 [Example 14, (R)-2-Cyclopentylmethyl-N-{(S)-2,2-dimethyl-1-[4-(2,4,5-trifluoro-benzylamino)-piperidine-1-carbonyl]-propyl}-3-(formyl-hydroxy-amino)-propionamide] | – | – | – | 0.1 (≈ 0.18 µM) | 0.2 (≈ 0.361 µM) | 0.4 (≈ 0.721 µM) | 1.6 (≈ 2.88 µM) | 0.1 (≈ 0.18 µM) | – | – | – | – | – |
| CC(C)(C)[C@H](NC(=O)[C@H](CC1CCCC1)CN(O)C=O)C(=O)N1CCC(Nc2ccccc2)CC1 [Example 15, (R)-2-Cyclopentylmethyl-N-[(S)-2,2-dimethyl-1-(4-phenylamino-piperidine-1-carbonyl)-propyl]-3-(formyl-hydroxy-amino)-propionamide] | – | – | – | – | – | – | – | – | 0.1 (≈ 0.205 µM) | 0.4 (≈ 0.822 µM) | 0.4 (≈ 0.822 µM) | 1.6 (≈ 3.29 µM) | 0.1 (≈ 0.205 µM) |
| CC(C)(C)[C@H](NC(=O)[C@H](CC1CCCC1)CN(O)C=O)C(=O)N1CCC(Nc2ccc(C#N)cc2)CC1 [Example 16, (R)-N-{(S)-1-[4-(4-Cyano-phenylamino)-piperidine-1-carbonyl]-2,2-dimethyl-propyl}-2-cyclopentylmethyl-3-(formyl-hydroxy-amino)-propionamide] | – | – | – | 0.1 (≈ 0.195 µM) | 0.4 (≈ 0.782 µM) | 1.6 (≈ 3.13 µM) | 3.1 (≈ 6.06 µM) | 0.1 (≈ 0.195 µM) | – | – | – | – | – |
| Cc1ccc(NC2CCN(C(=O)[C@@H](NC(=O)[C@H](CC3CCCC3)CN(O)C=O)C(C)(C)C)CC2)cc1 [Example 18, (R)-2-Cyclopentylmethyl-N-[(S)-2,2-dimethyl-1-(4-p-tolylamino-piperidine-1-carbonyl)-propyl]-3-(formyl-hydroxy-amino)-propionamide] | – | – | – | 0.2 (≈ 0.399 µM) | 0.4 (≈ 0.799 µM) | 0.4 (≈ 0.799 µM) | 3.1 (≈ 6.19 µM) | 0.1 (≈ 0.2 µM) | – | – | – | – | – |
| COc1ccc(NC2CCN(C(=O)[C@@H](NC(=O)[C@H](CC3CCCC3)CN(O)C=O)C(C)(C)C)CC2)cc1 [Example 19, (R)-2-Cyclopentylmethyl-3-(formyl-hydroxy-amino)-N-{(S)-1-[4-(4-methoxy-phenylamino)-piperidine-1-carbonyl]-2,2-dimethyl-propyl}-propionamide] | – | – | – | 0.4 (≈ 0.774 µM) | 1.6 (≈ 3.1 µM) | 0.2 (≈ 0.387 µM) | 3.1 (≈ 6 µM) | 0.2 (≈ 0.387 µM) | – | – | – | – | – |
| COC(=O)c1ccc(NC2CCN(C(=O)[C@@H](NC(=O)[C@H](CC3CCCC3)CN(O)C=O)C(C)(C)C)CC2)cc1 [Example 21, 4-(1-[(S)-2-[(R)-2-Cyclopentylmethyl-3-(formyl-hydroxy-amino)-propionylamino]-3,3-dimethyl-butyryl]-piperidin-4-ylamino)-benzoic acid methyl ester] | – | – | – | 0.2 (≈ 0.367 µM) | 1.6 (≈ 2.94 µM) | 0.8 (≈ 1.47 µM) | 6.3 (≈ 11.6 µM) | 0.4 (≈ 0.734 µM) | – | – | – | – | – |
| CC(C)(C)[C@H](NC(=O)[C@H](CC1CCCC1)CN(O)C=O)C(=O)N1CCC(Nc2ccc(F)cc2F)CC1 [Example 23, (R)-2-Cyclopentylmethyl-N-{(S)-1-[4-(2,4-difluoro-phenylamino)-piperidine-1-carbonyl]-2,2-dimethyl-propyl}-3-(formyl-hydroxy-amino)-propionamide] | – | – | – | – | – | – | – | – | 0.05 (≈ 0.0957 µM) | 0.2 (≈ 0.383 µM) | 0.2 (≈ 0.383 µM) | 3.1 (≈ 5.93 µM) | 0.1 (≈ 0.191 µM) |
| COc1ccc(NC2CCN(C(=O)[C@@H](NC(=O)[C@H](CC3CCCC3)CN(O)C=O)C(C)(C)C)CC2)c(OC)c1 [Example 24, (R)-2-Cyclopentylmethyl-N-{(S)-1-[4-(2,4-dimethoxy-phenylamino)-piperidine-1-carbonyl]-2,2-dimethyl-propyl}-3-(formyl-hydroxy-amino)-propionamide] | – | – | – | 0.2 (≈ 0.366 µM) | 0.8 (≈ 1.46 µM) | 0.4 (≈ 0.732 µM) | 6.3 (≈ 11.5 µM) | 0.1 (≈ 0.183 µM) | – | – | – | – | – |
| CC(C)(C)[C@H](NC(=O)[C@H](CC1CCCC1)CN(O)C=O)C(=O)N1CCC(Nc2ccc(N3CCOCC3)c(F)c2)CC1 [Example 25, (R)-2-Cyclopentylmethyl-N-{(S)-1-[4-(3-fluoro-4-morpholin-4-yl-phenylamino)-piperidine-1-carbonyl]-2,2-dimethyl-propyl}-3-(formyl-hydroxy-amino)-propionamide] | – | – | – | 0.4 (≈ 0.678 µM) | 3.1 (≈ 5.26 µM) | 1.6 (≈ 2.71 µM) | 12.5 (≈ 21.2 µM) | 0.8 (≈ 1.36 µM) | – | – | – | – | – |
| CC(=O)NC[C@H]1CN(c2ccc(N3CCOCC3)c(F)c2)C(=O)O1 [Linezolid, reference compound] | – | – | – | 0.8 (≈ 2.37 µM) | 1.6 (≈ 4.74 µM) | 0.8 (≈ 2.37 µM) | 0.8 (≈ 2.37 µM) | 0.8 (≈ 2.37 µM) | – | – | – | – | – |
| CN[C@H](CC(C)C)C(=O)N[C@H]1C(=O)N[C@@H](CC(N)=O)C(=O)N[C@H]2C(=O)N[C@H]3C(=O)N[C@H](C(=O)N[C@H](C(=O)O)c4cc(O)cc(O)c4-c4cc3ccc4O)[C@H](O)c3ccc(c(Cl)c3)Oc3cc2cc(c3O[C@@H]2O[C@H](CO)[C@@H](O)[C@H](O)[C@H]2O[C@H]2C[C@](C)(N)[C@H](O)[C@H](C)O2)Oc2ccc(cc2Cl)[C@H]1O [Vancomycin, reference compound] | – | – | – | – | – | – | – | – | 0.2 (≈ 0.138 µM) | > 50 | 0.4 (≈ 0.276 µM) | > 50 | 0.4 (≈ 0.276 µM) |
